Laboratory results published in ChEMBL document CHEMBL3046151, “Assessment of antithyroid activity of 2,8-disulfanyl-1,9-dihydro-6H-purin-6-one in vitro and in vivo” (2012).
Calls of active or inactive are those of the source. The rule behind the calls is not given here.

Key:
Rattus norvegicus [1] = experiment: Antithyroid activity in Rattus norvegicus Wistar (rat) assessed as cylindrical follicles in thyroid gland at 20 mg/kg, ip for 21 days by microscopic analysis; format: functional, organism-based; parameters: dose 20 mg/kg
Rattus norvegicus [2] = experiment: Antithyroid activity in Rattus norvegicus Wistar (rat) assessed as little colloid material in epithelium of thyroid gland at 20 mg/kg, ip for 21 days by microscopic analysis; format: functional, organism-based; parameters: dose 20 mg/kg
Rattus norvegicus [3] = experiment: Antithyroid activity in Rattus norvegicus Wistar (rat) assessed as thyroid stimulating hormone level in serum at 20 mg/kg, ip for 21 days measured after 21 days by ELISA (reference value: 1.83 +/- 0.307 microi.u/ml); format: functional; settings: route intraperitoneal
Rattus norvegicus [4] = experiment: Antithyroid activity in Rattus norvegicus Wistar (rat) assessed as free thyroxin(T4) level in serum at 20 mg/kg, ip for 21 days measured after 21 days by radioimmunoassay (reference value: 33.171 +/- 0.474 pmol/l); format: functional; settings: route intraperitoneal
Rattus norvegicus [5] = experiment: Antithyroid activity in Rattus norvegicus Wistar (rat) assessed as free triiodothyronine(T3) level in serum at 20 mg/kg, ip for 21 days measured after 21 days by radioimmunoassay (reference value: 8.007 +/- 0.167 pmol/l); format: functional; settings: route intraperitoneal
[6] = Binding affinity to iodine assessed as compound-iodine complex formation by spectrophotometry

Row | Activity [6] | Compound | Activity (Rattus norvegicus [1]) | Activity (Rattus norvegicus [2]) | Activity (Rattus norvegicus [3]) | Activity (Rattus norvegicus [4]) | Activity (Rattus norvegicus [5])
1 |  | Cn1ccnc1S [METHIMAZOLE] | Active | Active | 6.014 uIU/ml | 25.096 pmol/L | 5.162 pmol/L
2 | Active | Oc1[nH]c(S)nc2nc(S)nc1-2 | Active | Active | 8.126 uIU/ml | 20.086 pmol/L | 4.418 pmol/L
